Molecular target: GluA1o-γ8 (Homo sapiens (Human), UniProt P42261+Q8WXS5)
Test: Calcium flux assay (FLIPR), inhibition of TARP γ8 dependent AMPA receptor activity
Type: cell-based
Settings: HEK293 cells stably expressing GRIA1o-CACNG8 fusion construct; calcium flux following 15 μM glutamate; negative log of IC50 in molar
Text: This assay was used to test compounds for their ability to inhibit TARP γ8 dependent AMPA receptor activity. The AMPA receptor is a non-selective cation channel activated by glutamate. Ionotropic glutamate receptors normally desensitize too rapidly to allow detectable calcium influx in a FLIPR assay (Strange et al. (2006). “Functional characterisation of homomeric ionotropic glutamate receptors GluR1-GluR6 in a fluorescence-based high throughput screening assay.” Comb Chem High Throughput Screen 9(2): 147-158). But, this desensitization is incomplete, and a substantial steady-state current remains in the sustained presence of glutamate (Cho et al. (2007). “Two families of TARP isoforms that have distinct effects on the kinetic properties of AMPA receptors and synaptic currents.” Neuron 55(6): 890-904).
An in vitro assay was used to determine the potency of test compounds as inhibitors of the glutamate response of the channel formed by GluA1o-γ8. To ensure a 1:1 stoichiometry of GluA1o and γ8 subunits in the expressed channel, a fusion of the cDNAs for GRIA1o and CACNG8 was used. Following Shi et al (2009) “The stoichiometry of AMPA receptors and TARPs varies by neuronal cell type.” Neuron 62(5): 633-640), the C-terminus of the cDNA for GRIA1o was fused to the N-terminus of the cDNA for γ8. The linker sequence was QQQQQQQQQQEFAT. Channels expressed with this construct appear to have similar properties to channels formed by co-expression of GRIA1o with an excess of CACNG8 (Shi et al. 2009). A clonal cell line in HEK293 cells stably expressing this construct, with a geneticin selection marker, was generated for use in this assay.
Cell expressing the GRIA1o-CACNG8 fusion construct were grown in a monolayer in 96- or 384-well microtiter plates. They were washed with assay buffer (135 mM NaCl, 4 mM KCl, 3 mM CaCl2, 1 mM MgCl2, 5 mM glucose, 10 mM HEPES, pH 7.4, 300 mOs) using a Biotek EL405 plate washer. The cells were then loaded with a calcium-sensitive dye (Calcium-5 or Calcium-6, Molecular Devices) and the test compounds at a range of concentrations. Calcium flux following the addition of 15 μM glutamate was monitored using a Molecular Devices FLIPR Tetra.
The fluorescence in each well was normalized to the fluorescence of negative and positive control wells. The negative control wells had no added compounds, and the positive control wells had been incubated with 10 μM CP465022 (a non-subtype-selective AMPA receptor antagonist) (Lazzaro et al. (2002). “Functional characterization of CP-465,022, a selective, noncompetitive AMPA receptor antagonist.” Neuropharmacology 42(2): 143-153). The responses to glutamate as functions of the test compound concentrations were fitted to a four-parameter logistic function. The fitted parameter corresponding to the midpoint was taken to be the potency of inhibition of the compound. The data in Table 4 below illustrates the observed potency for the compounds described herein. pIC50 refers to the negative log of the IC50 in molar.

GluA1o-γ8, sequence (P42261 other isoform, or with tags, fused parts or gaps): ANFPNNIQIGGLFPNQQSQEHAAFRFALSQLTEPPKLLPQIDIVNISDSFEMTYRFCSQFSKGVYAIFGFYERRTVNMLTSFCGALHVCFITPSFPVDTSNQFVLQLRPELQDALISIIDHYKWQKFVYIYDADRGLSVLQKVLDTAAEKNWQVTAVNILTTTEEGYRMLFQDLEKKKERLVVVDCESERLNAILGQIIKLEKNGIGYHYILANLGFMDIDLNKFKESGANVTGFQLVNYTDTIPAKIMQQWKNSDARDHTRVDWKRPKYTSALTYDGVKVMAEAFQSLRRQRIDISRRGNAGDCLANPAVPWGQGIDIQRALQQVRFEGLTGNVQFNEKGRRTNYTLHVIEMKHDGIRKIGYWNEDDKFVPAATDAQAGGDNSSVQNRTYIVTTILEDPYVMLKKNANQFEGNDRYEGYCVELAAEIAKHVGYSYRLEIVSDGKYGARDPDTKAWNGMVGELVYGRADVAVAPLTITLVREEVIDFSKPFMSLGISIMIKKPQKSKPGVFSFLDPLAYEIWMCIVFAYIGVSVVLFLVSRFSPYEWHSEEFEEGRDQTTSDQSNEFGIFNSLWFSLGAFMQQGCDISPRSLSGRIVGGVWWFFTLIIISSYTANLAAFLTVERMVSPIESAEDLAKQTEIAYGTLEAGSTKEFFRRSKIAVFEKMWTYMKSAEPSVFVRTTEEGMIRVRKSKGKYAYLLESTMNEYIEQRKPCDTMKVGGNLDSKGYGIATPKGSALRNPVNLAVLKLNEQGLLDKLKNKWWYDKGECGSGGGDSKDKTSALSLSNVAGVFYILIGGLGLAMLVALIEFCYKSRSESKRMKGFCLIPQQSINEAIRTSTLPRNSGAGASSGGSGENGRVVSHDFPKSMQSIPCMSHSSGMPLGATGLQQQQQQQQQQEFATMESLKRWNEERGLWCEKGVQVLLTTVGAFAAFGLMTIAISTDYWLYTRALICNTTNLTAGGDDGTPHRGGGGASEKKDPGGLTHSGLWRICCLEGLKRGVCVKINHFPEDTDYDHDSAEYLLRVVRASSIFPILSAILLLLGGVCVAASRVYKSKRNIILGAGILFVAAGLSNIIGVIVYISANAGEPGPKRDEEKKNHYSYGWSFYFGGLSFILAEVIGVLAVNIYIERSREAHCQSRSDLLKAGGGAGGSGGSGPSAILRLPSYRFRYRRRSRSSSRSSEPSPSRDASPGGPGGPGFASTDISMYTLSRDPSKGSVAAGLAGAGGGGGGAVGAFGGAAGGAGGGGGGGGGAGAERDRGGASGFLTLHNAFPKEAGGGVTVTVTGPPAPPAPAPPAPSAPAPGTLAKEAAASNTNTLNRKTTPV

First: COc1ccn2nc(C(F)(F)F)nc2c1-c1cc(C)c2[nH]ncc2c1 [Example 29, 7-Methoxy-8-(7-methyl-1H-indazol-5-yl)-2-(trifluoromethyl)-[1,2,4]triazolo[1,5-a]pyridine]
Second: Cc1cc(-c2c(C(C)C)ccn3nc(C(F)(F)F)nc23)cc2cn[nH]c12 [Example 49, 7-Isopropyl-8-(7-methyl-1H-indazol-5-yl)-2-(trifluoromethyl)-[1,2,4]triazolo[1,5-a]pyridine]
The pIC50 of the first is lower: 7.6 for the first, 10.5 for the second.

`FC(F)(F)c1ccn2nc(C3CC3)nc2c1-c1cc(Cl)c2[nH]ncc2c1` [Example 30, 8-(7-Chloro-1H-indazol-5-yl)-2-cyclopropyl-7-(trifluoromethyl)-[1,2,4]triazolo[1,5-a]pyridine] and `Cc1cc(-c2c(C(F)(F)F)ccn3nc(C4CC4)nc23)cc2cn[nH]c12` [Example 31, 2-Cyclopropyl-8-(7-methyl-1H-indazol-5-yl)-7-(trifluoromethyl)-[1,2,4]triazolo[1,5-a]pyridine] are within 0.2 log units of each other in pIC50: 9.8 for the first, 9.7 for the second.

Compared with `Cc1nc2c(-c3cc(Cl)c4[nH]ncc4c3)c(C(F)(F)F)ccn2n1` [Example 32, 8-(7-Chloro-1H-indazol-5-yl)-2-methyl-7-(trifluoromethyl)-[1,2,4]triazolo[1,5-a]pyridine], `Cc1nc2c(-c3cc(C)c4[nH]ncc4c3)c(C(F)(F)F)ccn2n1` [Example 33, 2-Methyl-8-(7-methyl-1H-indazol-5-yl)-7-(trifluoromethyl)-[1,2,4]triazolo[1,5-a]pyridine] is lower in pIC50: 8.3 for the first, 7.9 for the second.

First: CCc1nc2c(-c3cc(Cl)c4[nH]ncc4c3)c(C(F)(F)F)ccn2n1 [Example 34, 8-(7-Chloro-1H-indazol-5-yl)-2-ethyl-7-(trifluoromethyl)-[1,2,4]triazolo[1,5-a]pyridine]
Second: CCc1nc2c(-c3cc(C)c4[nH]ncc4c3)c(C(F)(F)F)ccn2n1 [Example 35, 2-Ethyl-8-(7-methyl-1H-indazol-5-yl)-7-(trifluoromethyl)-[1,2,4]triazolo[1,5-a]pyridine]
The pIC50 of the first is higher: 9.4 for the first, 8.8 for the second.

Compared with `CCc1nc2c(-c3cc(C)c4c(c3)CC(=O)N4)c(C(F)(F)F)ccn2n1` [Example 36, 5-[2-Ethyl-7-(trifluoromethyl)-[1,2,4]triazolo[1,5-a]pyridin-8-yl]-7-methyl-indolin-2-one], `Cc1cc(-c2c(C(F)(F)F)ccn3nc(C(C)C)nc23)cc2c1NC(=O)C2` [Example 39, 5-[2-Isopropyl-7-(trifluoromethyl)-[1,2,4]triazolo[1,5-a]pyridin-8-yl]-7-methyl-indolin-2-one] is higher in pIC50: 8.7 for the first, 9.2 for the second.

Going from `CC(C)c1nc2c(-c3cc(Cl)c4[nH]ncc4c3)c(C(F)(F)F)ccn2n1` [Example 37, 8-(7-Chloro-1H-indazol-5-yl)-2-isopropyl-7-(trifluoromethyl)-[1,2,4]triazolo[1,5-a]pyridine] to `Cc1cc(-c2c(C(F)(F)F)ccn3nc(C(C)C)nc23)cc2cn[nH]c12` [Example 38, 2-Isopropyl-8-(7-methyl-1H-indazol-5-yl)-7-(trifluoromethyl)-[1,2,4]triazolo[1,5-a]pyridine], the pIC50 falls from 9.9 to 8.7.

Going from `Cc1ccn2nc(C(C)C)nc2c1-c1cc(C)c2[nH]ncc2c1` [Example 40, 2-Isopropyl-7-methyl-8-(7-methyl-1H-indazol-5-yl)-[1,2,4]triazolo[1,5-a]pyridine] to `Cc1ccn2cc(C(C)(C)C)nc2c1-c1cc(C)c2[nH]ncc2c1` [Example 53, 2-tert-Butyl-7-methyl-8-(7-methyl-1H-indazol-5-yl)imidazo[1,2-a]pyridine], the pIC50 rises from 6.9 to 7.5.

First: FC(F)(F)c1nc2c(-c3cc(Cl)c4[nH]ncc4c3)c(Cl)ccn2n1 [Example 41, 7-Chloro-8-(7-chloro-1H-indazol-5-yl)-2-(trifluoromethyl)-[1,2,4]triazolo[1,5-a]pyridine]
Second: Fc1ccc(-c2ccn3nc(C(F)(F)F)nc3c2-c2cc(Cl)c3[nH]ncc3c2)cc1 [Example 43, 7-(4-Fluorophenyl)-8-(7-chloro-1H-indazol-5-yl)-2-(trifluoromethyl)-[1,2,4]triazolo[1,5-a]pyridine]
The pIC50 of the first is lower: 9.0 for the first, 11.0 for the second.

Going from `Fc1ccc(-c2ccn3nc(C(F)(F)F)nc3c2-c2cc(F)c3[nH]ncc3c2)cc1` [Example 42, 7-(4-Fluorophenyl)-8-(7-fluoro-1H-indazol-5-yl)-2-(trifluoromethyl)-[1,2,4]triazolo[1,5-a]pyridine] to `Cc1cc(-c2c(-c3ccc(F)cc3)ccn3nc(C(F)(F)F)nc23)cc2cn[nH]c12` [Example 44, 7-(4-Fluorophenyl)-8-(7-methyl-1H-indazol-5-yl)-2-(trifluoromethyl)-[1,2,4]triazolo[1,5-a]pyridine], the pIC50 rises from 9.0 to 10.5.

First: Fc1ccc(-c2ccn3nc(C(F)(F)F)nc3c2-c2ccc3[nH]nc(F)c3c2)cc1 [Example 45, 8-(3-Fluoro-1H-indazol-5-yl)-7-(4-fluorophenyl)-2-(trifluoromethyl)-[1,2,4]triazolo[1,5-a]pyridine]
Second: Cc1cc(-c2c(-c3ccc(F)cc3)ccn3nc(C(F)F)nc23)cc2cn[nH]c12 [Example 46, 2-(Difluoromethyl)-7-(4-fluorophenyl)-8-(7-methyl-1H-indazol-5-yl)-[1,2,4]triazolo[1,5-a]pyridine]
The pIC50 of the first is lower: 7.6 for the first, 10.5 for the second.

Compared with `COCc1nc2c(-c3cc(C)c4[nH]ncc4c3)c(-c3ccc(F)cc3)ccn2n1` [Example 47, 7-(4-Fluorophenyl)-2-(methoxymethyl)-8-(7-methyl-1H-indazol-5-yl)-[1,2,4]triazolo[1,5-a]pyridine], `Cc1cc(-c2c(-c3ccc(F)cc3)ccn3nc(C4CC4)nc23)cc2cn[nH]c12` [Example 48, 2-Cyclopropyl-7-(4-fluorophenyl)-8-(7-methyl-1H-indazol-5-yl)-[1,2,4]triazolo[1,5-a]pyridine] is higher in pIC50: 8.7 for the first, 10.1 for the second.

First: Cc1ccn2cc(C(F)(F)F)nc2c1-c1ccc2[nH]ncc2c1 [Example 50, 8-(1H-Indazol-5-yl)-7-methyl-2-(trifluoromethyl)imidazo[1,2-a]pyridine]
Second: Cc1ccn2cc(C(F)(F)F)nc2c1-c1cc(C)c2[nH]ncc2c1 [Example 52, 7-Methyl-8-(7-methyl-1H-indazol-5-yl)-2-(trifluoromethyl)imidazo[1,2-a]pyridine]
The pIC50 of the first is lower: 7.2 for the first, 8.0 for the second.

Going from `Cc1ccn2cc(C(F)(F)F)nc2c1-c1cc(F)c2c(c1)CC(=O)N2` [Example 51, 7-Fluoro-5-[7-methyl-2-(trifluoromethyl)imidazo[1,2-a]pyridin-8-yl]indolin-2-one] to `COc1ccn2cc(C(F)(F)F)nc2c1-c1cc(C)c2c(c1)CC(=O)N2` [Example 58, 5-[7-Methoxy-2-(trifluoromethyl)imidazo[1,2-a]pyridin-8-yl]-7-methyl-indolin-2-one], the pIC50 rises from 7.2 to 7.8.

Compared with `Cc1cc(-c2c(C)ccn3cc(C(C)(C)C)nc23)cc2c1NC(=O)C2` [Example 54, 5-(2-tert-Butyl-7-methyl-imidazo[1,2-a]pyridin-8-yl)-7-methyl-indolin-2-one], `Cc1cc(-c2c(C)ccn3cc(-c4ccccc4)nc23)cc2c1NC(=O)C2` [Example 55, 7-Methyl-5-(7-methyl-2-phenyl-imidazo[1,2-a]pyridin-8-yl)indolin-2-one] is higher in pIC50: 7.1 for the first, 7.4 for the second.

Going from `Cc1ccn2cc(-c3ccccc3)nc2c1-c1cc(C)c2[nH]ncc2c1` [Example 56, 7-Methyl-8-(7-methyl-1H-indazol-5-yl)-2-phenyl-imidazo[1,2-a]pyridine] to `Cc1ccn2cc(C3CC3)nc2c1-c1cc(C)c2[nH]ncc2c1` [Example 57, 2-Cyclopropyl-7-methyl-8-(7-methyl-1H-indazol-5-yl)imidazo[1,2-a]pyridine], the pIC50 falls from 7.9 to 7.6.

Going from `COc1ccn2cc(C(F)(F)F)nc2c1-c1cc(C)c2[nH]ncc2c1` [Example 59, 7-Methoxy-8-(7-methyl-1H-indazol-5-yl)-2-(trifluoromethyl)imidazo[1,2-a]pyridine] to `Cc1cc(-c2c(Cl)ccn3cc(C(F)(F)F)nc23)cc2cn[nH]c12` [Example 60, 7-Chloro-8-(7-methyl-1H-indazol-5-yl)-2-(trifluoromethyl)imidazo[1,2-a]pyridine], the pIC50 rises from 8.1 to 9.0.

Source: patent US10155769B2, “Fused azaheterocyclic compounds and their use as AMPA receptor modulators” (Janssen Pharmaceutica NV, priority 2016, dated 2018)
